Results taken from patent US9284274B2, “Chemical derivatives of jasmonate, pharmaceutical compositions and methods of use thereof” (RAMOT AT TEL-AVIV UNIVERSITY LTD., priority 2005, dated 2016).
Like-named read-outs stand apart in the source and are kept apart here.

Key:
[1] = test system: Molt-4 human acute lymphoblastic leukemia cell-line; experiment: Cytotoxicity, XTT Cell Proliferation Kit assay, Molt-4; assay type: cell-based; conditions: 24 hours; for IC50: XTT; for Cytotoxic effect on leukemic cells (FIG. 1): Molt-4, 0.005-0.5 mM
Protocol: (§1) Cell densities were as follows: Molt-4 (at 2.5×10^4 cells in 100 μl per well), CT26 (at 5×10^3 cells in 100 μl, per well), MCF7 (at 5×10^3 cells in 100 μL per well) and PBL (at 1.5×10^5 cells in 100 μl per well) seeded in 96-well plates. Adherent cells (CT26 and MCF7) were allowed to adhere over-night.
(§2) Jasmonate-derivatives were added at concentration ranging from 0.005-0.5 mM for 24 hours. Each experimental point was performed in triplicates. Untreated cells were used as control. […] Dilutions were performed in culture medium and ethanol so that the final concentration of ethanol in each well was 0.6%.
(§3) Optical density representing viable cells was determined using the XTT Cell Proliferation Kit assay (Biological industries, Beit-Haemek, Israel).
(§4) Percentage of Optical density is directly proportional to the number of living cells in culture. Cytotoxicity (%) was calculated in the following way: [(OD of control cells−OD of drug-treated cells)/OD of control cells]×100.
(§5) Mononuclear cells were isolated from peripheral blood of healthy donors and treated as described above. The non-adherent PBL were pre-incubated with PHA and TPA as described above. Molt-4 and PBL cells were seeded in 96-well plates as described above.
(§6) Each experimental point was performed in triplicates. Untreated cells were used as control. […] Optical density and percentage of Cytotoxicity were determined as described above.

[2] = test system: normal lymphocytes (PBL) from healthy donors stimulated with PHA and TPA; experiment: Cytotoxicity, XTT assay, normal lymphocytes (PBL); assay type: cell-based; conditions: 24 hours; for IC50: Lymphocyte, XTT, PBL pre-incubated with PHA and TPA; for Cytotoxic effect on normal lymphocytes (FIG. 1): PBL, 0.005-0.5 mM
Protocol: Mononuclear cells were isolated from peripheral blood of healthy donors by ficoll-hypaque density gradient centrifugation. The mononuclear cells were allowed to adhere to plastic dishes to remove macrophages. The non-adherent peripheral blood lymphocytes (PBL) were pre-incubated with 0.8 μg/mL PHA and 5 ng/mL TPA for 24 hours and then used in further experiments.
as §1, §2, §3, §4, §5, §6

[3] = test system: MCF7 human breast adenocarcinoma cell-line; experiment: Cytotoxicity, XTT Cell Proliferation Kit assay, MCF7; assay type: cell-based; conditions: 24 hours, read-out: IC50 in MCF-7
Protocol: as §1, §2, §3, §4

[4] = test system: CT26 murine colon carcinoma cell-line; experiment: Cytotoxicity, XTT Cell Proliferation Kit assay, CT26; assay type: cell-based; conditions: Mus musculus, 24 hours, read-out: IC50 in CT-26
Protocol: as §1, §2, §3, §4

[5] = test system: LXFA 1012 lung, non small, adeno carcinoma, pd; experiment: Clonogenic assay (TCA), LXFA 1012; assay type: cell-based; conditions: Homo sapiens, LXFA 1012, Adeno carcinoma, read-out: IC50 colony formation
Protocol: (§7) Cancer cells were taken directly from cancer patients, employing the Tumor-Colony-Assay: Solid human tumor xenografts growing subcutaneously in serial passages in thymus aplastic nude mice were removed and disaggregated to obtain isolated tumor cells. Viable cells were added to culture medium supplemented with agar and plated in 24-multiwell dishes. The test compound was applied in the cultures that were incubated at 37° C. for 6-20 days and monitored for colony growth using an inverted microscope. At the time of maximum colony formation, colonies were counted and 24 hours prior to evaluation, stained with a vital dye. Drug effects were expressed in terms of the percentage of colony formation, obtained by comparison of the mean number of colonies in the treated wells with the mean colony count of untreated controls. IC50 values, being the drug concentrations necessary to inhibit colony formation by 50%, were determined by plotting compound concentration versus relative colony count.

[6] = test system: LXFA 749 lung, non small, adeno carcinoma, pd; experiment: Clonogenic assay (TCA), LXFA 749; assay type: cell-based; conditions: Homo sapiens, LXFA 749, Adeno carcinoma, read-out: IC50 colony formation
Protocol: as §7

[7] = test system: MAXF 857 breast invasive ductal carcinoma; experiment: Clonogenic assay (TCA), MAXF 857; assay type: cell-based; conditions: Homo sapiens, MAXF 857, Invasive ductal carcinoma, read-out: IC50 colony formation
Protocol: as §7

[8] = test system: squamous cell carcinoma cells (cell line A431); experiment: Proliferation assay using XTT reagent, squamous cell carcinoma cells; assay type: cell-based; conditions: A431, three days, read-out: IC50 inhibition of proliferation of squamous cell carcinoma cells
Protocol: (§8) The effect of methyl jasmonate and compound 9 and 9A on the proliferation of squamous cell carcinoma cells (cell line A431) and basal cell carcinoma cells (cell line TE 354.T) was determined.
(§9) Cells were treated with various concentrations of methyl jasmonate and the compounds 9 and 9A for three days followed by a proliferation assay using XTT reagent (sodium 2,3,-bis(2-methoxy-4-nitro-5-sulfophenyl)-5-[(phenylamino)-carbonyl]-2H-tetrazolium inner salt).

[9] = test system: CXF 280 colon adeno carcinoma, ud; experiment: Clonogenic assay (TCA), CXF 280; assay type: cell-based; conditions: Homo sapiens, CXF 280, Adeno carcinoma, read-out: IC50 colony formation
Protocol: as §7

[10] = test system: RXF 1220 kidney hypernephroma, pd; experiment: Clonogenic assay (TCA), RXF 1220; assay type: cell-based; conditions: Homo sapiens, RXF 1220, Hypernephroma, read-out: IC50 colony formation
Protocol: as §7

[11] = test system: LXFA 1041 lung, non small, adeno carcinoma, md; experiment: Clonogenic assay (TCA), LXFA 1041; assay type: cell-based; conditions: Homo sapiens, LXFA 1041, Adeno carcinoma, read-out: IC50 colony formation
Protocol: as §7

[12] = test system: GXF 214 stomach adeno carcinoma, ud; experiment: Clonogenic assay (TCA), GXF 214; assay type: cell-based; conditions: Homo sapiens, GXF 214, Adeno carcinoma, read-out: IC50 colony formation
Protocol: as §7

[13] = test system: MAXF 1322 breast papillary adeno carcinoma, pd; experiment: Clonogenic assay (TCA), MAXF 1322; assay type: cell-based; conditions: Homo sapiens, MAXF 1322, Papillary adeno carcinoma, read-out: IC50 colony formation
Protocol: as §7

[14] = test system: LXFA 629 lung, non small, adeno carcinoma, pd; experiment: Clonogenic assay (TCA), LXFA 629; assay type: cell-based; conditions: Homo sapiens, LXFA 629, Adeno carcinoma, read-out: IC50 colony formation
Protocol: as §7

[15] = test system: LXFS 573 small cell lung carcinoma; experiment: Clonogenic assay (TCA), LXFS 573; assay type: cell-based; conditions: Homo sapiens, read-out: IC50 colony formation
Protocol: as §7

[16] = test system: LXFL 430 large cell lung carcinoma, ud; experiment: Clonogenic assay (TCA), LXFL 430; assay type: cell-based; conditions: Homo sapiens, non small, read-out: IC50 colony formation
Protocol: as §7

[17] = test system: RXF 423 kidney hypernephroid adeno carcinoma; experiment: Clonogenic assay (TCA), RXF 423; assay type: cell-based; conditions: Homo sapiens, RXF 423, Hypernephroid adeno carcinoma, read-out: IC50 colony formation
Protocol: as §7

[18] = test system: basal cell carcinoma cells (cell line TE 354.T); experiment: Proliferation assay using XTT reagent, basal cell carcinoma cells; assay type: cell-based; conditions: three days, read-out: IC50 inhibition of proliferation of basal cell carcinoma cells
Protocol: as §8, §9

[19] = test system: CT-26 colon carcinoma cells; experiment: ATP levels, CellTiter-Glo Luminescent Cell Viability Assay; assay type: cell-based, Murine
Protocol: CT-26 cells were exposed to compound 9 for 3 hours and ATP levels were measured using the CellTiter-Glot Luminescent Cell Viability Assay (Promega, Madison, Wis., U.S.A.). […] It thus appears that a drop in cellular energy levels may precipitate the cytotoxic effect of compound 9.

B16F10 melanoma cells = experiment: Experimental metastasis of B16 melanoma cells to the lungs in vivo; design: species or system C57bl mice; conditions: 10 mg/kg i.v. once daily, 5 days a week for 3 weeks; lungs weighed after 22 days
Protocol: The experiment was comprised of 3 groups of C57bl mice (12-15 weeks old, n=12), total of 36 all inoculated with B16F10 melanoma cells, 0.1 ml of B16F10 in PBS×1, inoculums of 7×10^5 cells per mouse. Group M1—non treated, Group M2—treated once daily, 5 days a week for 3 weeks with Compound 9 dissolved with surfactants (10 mg/kg, diluted 1:5 with Saline, i.v.), and Group M3—a positive control group treated with Paclitaxel once in 7 days (15 mg/kg, i.v.). After 22 days, mice were sacrificed and lungs were weighed. Lungs with metastases weigh more than normal lungs (which weigh about 200 mg), and a decrease in lung weight in comparison to control tumor-bearing untreated mice signifies an anti-metastatic effect.

[20] = test system: CXF 1299 colon adeno carcinoma; experiment: Clonogenic assay (TCA), CXF 1299; assay type: cell-based; conditions: Homo sapiens, CXF 1299, Adeno carcinoma, read-out: IC50 colony formation
Protocol: as §7

lymphomas = conditions: U.S. Pat. No. 6,469,061; cited from earlier work
cancer cells = conditions: Fingrut et al., 2005; cited from earlier work

For CC/C=C\CC1C(=O)CCC1CC(=O)OC1OC(CO)C(O)C(O)C1O (centres unmarked) [Compound 11], the IC50 ([1]; Homo sapiens, MOLT-4) was 79 ± 6 µM, the “Cytotoxic effect on leukemic cells (FIG. 1)” value [1] was “kill leukemic cells” and the IC50 [2] was 323 ± 211 µM. The “Cytotoxic effect on normal lymphocytes (FIG. 1)” value [2] was “without exerting a substantial effect on normal lymphocytes”, the IC50 [3] was 110 ± 20 µM and the IC50 [4] was 237 ± 29 µM.
With CC/C=C\CC1C(=O)CCC1CC(=O)NC(CC(C)C)C(=O)OC (centres unmarked) [Compound 10] the IC50 ([1]; Homo sapiens, MOLT-4) was 243 ± 39 µM, the IC50 [2] was > 500 µM and the IC50 [4] was > 500 µM.
In the case of CC/C=C\CC1C(=O)CCC1CCOC(C)=O (centres unmarked) [Compound 2], the IC50 ([1]; Homo sapiens, MOLT-4) is reported as 440 ± 109 µM, the IC50 [2] is reported as > 500 µM and the IC50 [3] is reported as > 500 µM. The IC50 [4] was > 500 µM.
CCC(Br)C(Br)CC1C(=O)CCC1CCO (centres unmarked) [Compound 8] showed an IC50 ([1]; Homo sapiens, MOLT-4) of 50 ± 28 µM, an IC50 [2] of 60 ± 14 µM and an IC50 [3] of 120 ± 60 µM. The IC50 [4] was 163 ± 42 µM.
For CCC1C(CC2C(=O)CCC2CC(=O)OC)C1(Cl)Cl (centres unmarked) [Compound 7], the IC50 ([1]; Homo sapiens, MOLT-4) was 125 ± 26 µM, the IC50 [2] was 425 ± 21 µM and the IC50 [3] was 323 ± 75 µM. It also gave an IC50 [4] of 393 ± 141 µM.
In the case of CC/C=C\CC1C(=O)CCC1CC(=O)Oc1cccc2cccnc12 (centres unmarked) [Compound 9], the IC50 ([1]; Homo sapiens, MOLT-4) is reported as 12 ± 9 µM, the “Cytotoxic effect on leukemic cells (FIG. 1)” value [1] is reported as “kill leukemic cells” and the IC50 [2] is reported as 200 ± 85 µM. The “Cytotoxic effect on normal lymphocytes (FIG. 1)” value [2] was “without exerting a substantial effect on normal lymphocytes”, the IC50 [5] was 1.32 µM and the IC50 [6] was 1.7 µM. The IC50 [7] was 1.55 µM, the IC50 ([8]; Homo sapiens, A-431, 72 h) was 0.089 µM and the IC50 [9] was 5.44 µM. It also gave an IC50 [3] of 60 ± 14 µM, an IC50 [10] of 6.32 µM and an IC50 [11] of 1.5 µM. For the same compound, the IC50 [12] was 1.94 µM, the IC50 [13] was 1.55 µM and the IC50 [4] was 29 ± 21 µM. For the same compound, the IC50 [14] was 1.38 µM, the IC50 [15] was 1.93 µM and the IC50 [16] was < 1 µM. For the same compound, the IC50 [17] was 1.69 µM, the IC50 ([18]; 72 h) was 0.049 µM and the “Drop in cellular ATP levels (FIG. 2)” value ([19]; 3 hours exposure, 0.2 or 0.5 mM compound) was “induced a significant drop in cellular ATP levels”. For the same compound, the “Effect of high glucose on the ATP drop (FIG. 2)” value ([19]; 3 hours, high (28 mM) versus low (2 mM) glucose) was “this effect was decreased in the presence of high glucose levels”, the “Suppression of lung metastasis (lung weight, FIG. 3)” value (B16F10 melanoma cells) was “very effective in suppressing lung metastasis” and the IC50 [20] was 1.12 µM.
With CCCCCC1C(=O)CCC1CCO[Si](C)(C)C(C)(C)C (centres unmarked) [Compound 6] the IC50 ([1]; Homo sapiens, MOLT-4) was 56 ± 11 µM, the IC50 [2] was 90 ± 14 µM and the IC50 [3] was 236 ± 180 µM. The IC50 [4] was 263 ± 212 µM.
For CC/C=C\CC1C(=O)CCC1CC(=O)OC (centres unmarked) [Methyl jasmonate, methyl jasmonate, reference compound], the IC50 ([8]; Homo sapiens, A-431, 72 h) is listed as 14 µM, the “Prevention of development of lymphomas in mice” value (lymphomas) is listed as “effective in preventing development of lymphomas in mice” and the “Decrease in ATP levels in cancer cells” value (cancer cells) is listed as “can cause a decrease in ATP levels in cancer cells”. The IC50 ([18]; 72 h) was 16 µM.
For CCCCCC1C(=O)CCC1CC(=O)Oc1cccc2cccnc12 (centres unmarked) [Compound 9A], the IC50 [1] was 10 µM, the IC50 [8] was 0.036 µM and the IC50 [18] was 0.116 µM.
